Source: ChEMBL document CHEMBL5360534, “Synthetic α-glucosidase inhibitors as promising anti-diabetic agents: Recent developments and future challenges” (Eur J Med Chem, 2023)

Tests used:
[1] = Inhibition of alpha-glucosidase (unknown origin) using p-nitrophenyl-alpha-D-glucopyranoside as substrate preincubated for 5 mins followed by substrate addition and measured after 5 mins by spectrophotometric analysis; set-up: species or system Homo sapiens
[2] = Inhibition of alpha-glucosidase (unknown origin); set-up: species or system Homo sapiens
[3] = target: T1, Alpha-glucosidase (Saccharomyces cerevisiae S288c, UniProt P53341+P38158+P07265); test: Inhibition of Saccharomyces cerevisiae alpha-glucosidase using p-nitrophenyl-alpha-D-glucopyranoside as substrate preincubated for 15 mins followed by substrate addition and measured after 30 mins by spectrophotometric analysis; assay type: protein assay
[4] = target: T1, Alpha-glucosidase; test: Inhibition of Saccharomyces cerevisiae alpha-glucosidase using pNPG as substrate preincubated for 10 mins followed by substrate addition and measured after 20 mins by spectrophotometric analysis; assay type: protein assay
[5] = target: T1, Alpha-glucosidase; test: Competitive inhibition of Saccharomyces cerevisiae alpha-glucosidase using pNPG as substrate assessed as inhibition constant preincubated for 15 mins followed by substrate addition and measured after 20 mins by spectrophotometric analysis; assay type: protein assay
[6] = target: T1, Alpha-glucosidase; test: Inhibition of Saccharomyces cerevisiae alpha-glucosidase using p-nitrophenyl-alpha-D-glucopyranoside as substrate preincubated for 5 mins followed by alpha-glucosidase addition and measured after 15 mins by UV-visible spectrophotometric analysis; assay type: protein assay
[7] = target: T1, Alpha-glucosidase; test: Inhibition of Saccharomyces cerevisiae alpha-glucosidase using p-nitrophenyl glucopyranoside as substrate preincubated for 10 mins followed by substrate addition and measured after 20 mins by spectrophotometric analysis; assay type: protein assay
[8] = Inhibition of Saccharomyces cerevisiae alpha-glucosidase type I using p-nitrophenyl-alpha-D-glucopyranoside as substrate preincubated for 10 mins followed by substrate addition and measured after 30 mins by spectrophotometric analysis
[9] = target: T1, Alpha-glucosidase; test: Inhibition of Saccharomyces cerevisiae alpha-glucosidase using p-nitrophenyl-alpha-D-glucopyranoside as substrate preincubated for 10 mins followed by substrate addition and measured after 30 mins by absorbance based analysis; assay type: protein assay
[10] = target: T1, Alpha-glucosidase; test: Inhibition of Saccharomyces cerevisiae alpha-glucosidase; assay type: protein assay
[11] = target: Alpha-glucosidase (Saccharomyces cerevisiae S288c) (UniProt P53341+P38158+P07265); test: Potency index, ratio of acarbose IC50 to test compound IC50 for inhibition of Saccharomyces cerevisiae alpha-glucosidase; assay type: protein assay
[12] = species: Homo sapiens; test: Potency index, ratio of acarbose IC50 to test compound IC50 for inhibition of alpha-glucosidase (unknown origin)
[13] = Inhibition of alpha-glucosidase (unknown origin) using p-NPG as substrate preincubated for 5 mins followed by substrate addition and measured after 30 mins by absorbance based analysis; set-up: species or system Homo sapiens

## Oc1ccc(/C=N/c2nnc(-c3ccc(Cl)cc3)s2)cc1
[1]
  IC50: 2.3 µM

## O=C(NNS(=O)(=O)c1ccccc1Cl)c1ccc(-c2nnc(-c3ccc([N+](=O)[O-])cc3)o2)cc1
[2]
  IC50: 1.1 µM

## COc1ccc(/C(CSc2nc3ccccc3[nH]2)=N/N=C/c2ccc(OC)cc2O)cc1
[1]
  IC50: 2.2 µM

## CC(C)Cc1ccc(C(C)c2nnc(SC/C(=N\c3ccc(Cl)c(Cl)c3)c3ccccc3)o2)cc1 (configuration not stated)
[2]
  IC50: 3.05 µM

## Nc1nnc(-c2cccc3cccc(O)c23)o1
[2]
  IC50: 0.8 µM

## CC(=O)CC(c1ccc(Br)cc1)C(C(=O)Nc1ccccn1)C(=O)Nc1ccccn1 (configuration not stated)
[3]
  IC50: 12.8 µM

## COc1ccc(/C=N/n2c(COc3ccccc3)nnc2SCCO)cc1
[2]
  IC50: 1.49 µM

## O=C(N/N=C/c1ccc(Cl)cc1)c1cc(-c2ccccc2)[nH]n1
[2]
  IC50: 60.5 µM

## O=C(COc1ccc(-c2nc(-c3ccccc3)c(-c3ccccc3)[nH]2)cc1)Nc1cccc(Br)c1
[4]
  IC50: 90 µM
[5]
  Ki: 86.3 µM

## CCOC(=O)c1c(-c2ccc(/C=C3/SC(=O)NC3=O)cc2)c2ccccc2n1Cc1ccccc1
[2]
  IC50: 5.3 µM

## O=C1Cc2ccccc2C(O)C1C(c1ccc(OCc2cn(Cc3ccccc3Cl)nn2)cc1)c1c(O)c2ccccc2oc1=O (configuration not stated)
[4]
  IC50: 13 µM

## N#Cc1ccc(S(=O)(=O)NNC(=O)c2cc3cc(F)ccc3[nH]2)cc1
[6]
  IC50: 6.2 µM

## Fc1ccc(C2=NOC(c3ccccc3)N2c2ccc(F)cc2)cc1 (configuration not stated)
[4]
  IC50: 256 µM

## CCOC(=O)c1c(-c2ccccc2)nn2c1C=C(c1ccc(O)c(OC)c1)/C2=N/C1CCCCC1
[7]
  IC50: 95 µM

## CS(=O)(=O)n1c(=O)c2ccccc2n2ncnc12
[8]
  IC50: 83.9 µM

## N#Cc1ccc2[nH]c(-c3nnc(Nc4ccc(Cl)c(Cl)c4)s3)cc2c1
[9]
  IC50: 0.95 µM

## O=C(NNS(=O)(=O)c1cccc(Cl)c1)c1cc2cc(F)ccc2[nH]1
[6]
  IC50: 7.4 µM

## O=C(COc1ccc2ccc(=O)oc2c1)N/N=C\c1cc([N+](=O)[O-])ccc1OCCCN1C(=O)c2ccccc2C1=O
[10]
  IC50: 94.2 µM

## O=c1cc(-c2ccc(OCc3cn(Cc4ccc(Cl)cc4)nn3)cc2)oc2ccccc12
[10]
  IC50: 24.77 µM
[11]
  Ratio IC50: 35

## OCCN1C[C@H](O)[C@@H](O)[C@H](O)[C@H]1CO [MIGLITOL]
[2]
  IC50: 0.39 µM

## OCCSc1nnc(COc2ccccc2)n1/N=C/c1ccc(O)cc1
[2]
  IC50: 1.49 µM

## OC[C@H]1CC2C(N=NN2c2ccccc2)[C@@H](O)C1O (some centres not stated)
[2]
  IC50: 74 µM

## Cc1cc([N+](=O)[O-])ccc1-c1cnc(CC(C)C)s1
[2]
  IC50: 7.17 µM

## C/C=C/n1c(=O)c2ccccc2n2ncnc12
[8]
  IC50: 45.6 µM

## O=C(NNS(=O)(=O)c1ccc(Br)cc1)c1cc2cc(F)ccc2[nH]1
[6]
  IC50: 4.7 µM

## O=C(N/N=C\c1ccccc1OCCCN1C(=O)c2ccccc2C1=O)c1cc2ccccc2oc1=O
[10]
  IC50: 85.2 µM

## Cc1ccc(C(c2c(N)c3ccccc3oc2=O)c2c(N)c3ccccc3oc2=O)cc1
[4]
  IC50: 20 µM
[5]
  Ki: 22.4 µM

## Cc1ccccc1Cn1cc(COc2ccc(C(c3c(O)c4ccccc4oc3=O)C3C(=O)Cc4ccccc4C3O)cc2)nn1 (configuration not stated)
[4]
  IC50: 16.4 µM

## O=c1oc2ccccc2cc1-c1nn(-c2ccccc2)cc1-c1nc(-c2ccccc2)c(-c2ccccc2)[nH]1
[9]
  IC50: 2.78 µM

## O=c1oc2ccc(Br)cc2cc1-c1nn(-c2ccccc2)cc1-c1nc(-c2ccccc2)c(-c2ccccc2)n1-c1ccc(Cl)cc1
[9]
  IC50: 2.53 µM

## COc1ccc(CCn2c(SCc3cn(Cc4ccc(Br)cc4)nn3)nc3ccccc3c2=O)cc1OC
[7]
  IC50: 192.3 µM

## COc1cccc2cc(-c3nnc(SCc4cn(CC(=O)NCc5ccc(F)cc5)nn4)o3)oc12
[7]
  IC50: 40.7 µM

## Cc1cc2nc(NC(=O)CN3C(=O)S/C(=C\c4ccc(Cl)cc4)C3=O)sc2cc1C
[10]
  IC50: 29.91 µM

## O=C1C(=O)N(Cc2cn(CN3C(=O)S/C(=C\c4ccco4)C3=O)nn2)c2ccccc21
[2]
  IC50: 24.7 µM

## CCOC(=O)c1c(-c2ccc(/C=C3/SC(=S)NC3=O)cc2)c2ccccc2n1Cc1ccc(Cl)cc1
[2]
  IC50: 0.51 µM

## COc1ccc(-n2c(SCC(=O)N/N=C/c3ccc(Cl)cc3)nc3ccccc3c2=O)cc1
[2]
  IC50: 610 µM

## O=[N+]([O-])c1ccccc1/C(CSc1nnc2c(n1)[nH]c1ccccc12)=N\c1nnc(-c2cccc(O)c2)s1
[2]
  IC50: 2.5 µM
[12]
  Ratio IC50: 15

## Clc1ccc(/C=N/Nc2nnc(-c3ccccc3)c(-c3ccccc3)n2)cc1
[10]
  IC50: 13.09 µM

## O=C(CSc1nc2ccccc2c(=O)n1-c1cccc(Br)c1)c1ccc([N+](=O)[O-])cc1
[2]
  IC50: 85 µM

## Cc1cccc(-n2c(-c3ccc(Cl)cc3)cc(C(=O)Nc3ccncc3)c2C)c1
[2]
  IC50: 118 µM

## Oc1c(Cl)cc(Cl)cc1/C=N/c1nc(-c2ccc(-c3ccccc3)cc2)cs1
[2]
  IC50: 0.5 µM

## CCOC(=O)CN1C(=O)/C(=N\NC(=O)c2ccccc2Cl)c2ccccc21
[2]
  IC50: 13.2 µM
[12]
  Ratio IC50: 2

## O=c1oc2ccccc2cc1-c1nn(C(Nc2ccccc2Oc2ccccc2NC(c2cccc(Br)c2)n2nc(-c3cc4ccccc4oc3=O)oc2=O)c2cccc(Br)c2)c(=O)o1 (configuration not stated)
[13]
  IC50: 0.07 µM

## CCn1cc(C(=O)OCc2ccccc2Br)c(=O)c2cc(F)c(N3CCN(Cc4ccccc4Br)CC3)nc21
[2]
  IC50: 45.8 µM

## O=C(CC(c1cc(Cl)ccc1Cl)c1c[nH]c2ccccc12)c1ccccc1 (configuration not stated)
[2]
  IC50: 4.3 µM

## CCOP(=O)(OCC)C(Nc1ccc(C(F)(F)F)cc1I)c1cc(OC)c(O)c(OC)c1 (configuration not stated)
[2]
  IC50: 94.5 µM

## Fc1ccc(-c2cn3c(Cc4n[nH]c(=S)n4-c4cccc5ccccc45)csc3n2)cc1
[2]
  IC50: 4.54 µM
[12]
  Ratio IC50: 47

## O=C1Nc2ccccc2C1(c1cn(Cc2ccccc2F)c2ccccc12)c1cn(Cc2ccccc2F)c2ccccc12
[3]
  IC50: 5.98 µM

## O=c1cc(-c2ccc(OCc3cn(Cc4cc(Cl)ccc4Cl)nn3)cc2)oc2ccccc12
[10]
  IC50: 24.37 µM
[11]
  Ratio IC50: 35

## COc1ccc(C2=NOC(c3ccccc3)N2c2ccc(OC)cc2)cc1 (configuration not stated)
[4]
  IC50: 295 µM

## COc1ccc(-c2coc3cc(OCC(=O)c4ccc(Cl)cc4)ccc3c2=O)cc1
[2]
  IC50: 6.3 µM

## CCOC(=O)c1c(-c2ccc(/C=C3/SC(=S)NC3=O)cc2)c2ccccc2n1Cc1ccccc1
[2]
  IC50: 0.91 µM

## O=S(=O)(NCCc1c[nH]c2ccccc12)c1cc(F)ccc1Cl
[1]
  IC50: 1.6 µM

## O=c1c2ccccc2n2ncnc2n1OCc1ccccc1
[8]
  IC50: 12.7 µM

## Cc1ccc(-c2nc3c(C(=O)Nc4ccccc4)c(Nc4ccccc4)nn3c(-c3ccc(Br)cc3)c2N)cc1
[5]
  Ki: 12 µM
[7]
  IC50: 15.2 µM

## COc1ccc(-c2csc(NC(=O)CSc3nnc(-c4ccc(Br)cc4)c(-c4ccc(Br)cc4)n3)n2)cc1
[3]
  IC50: 2.85 µM

## CCOC(=O)CN1C(=O)/C(=N\NC(=O)c2ccc(Cl)cc2)c2ccccc21
[2]
  IC50: 14.5 µM
[12]
  Ratio IC50: 2

## CSn1c(=O)c2ccccc2n2ncnc12
[8]
  IC50: 72.3 µM

## OC[C@H]1NC[C@H](O)[C@@H](O)[C@@H]1O [DUVOGLUSTAT]
[2]
  IC50: 426 µM

## Cc1ccc(-c2cc(C(F)(F)F)nn2-c2ccc(S(=O)(=O)NC(=O)c3ccc(C)c([N+](=O)[O-])c3)cc2)cc1
[2]
  IC50: 92.3 µM

## COc1ccccc1N1C(=O)/C(=C\c2ccc(F)cc2)S/C1=N\NC(=O)c1cc2ccccc2oc1=O
[13]
  IC50: 0.09 µM

## Cc1ccoc1-c1cccc(/C=N/NC(=O)c2ccc(-c3cc(=O)c4cc(O)ccc4o3)cc2)c1
[2]
  IC50: 1.02 µM

## COc1cc(OC)c(Br)c(-c2nc3ccc(Br)cc3[nH]2)c1
[2]
  IC50: 8.15 µM

## O=C(Cn1c(-c2ccc(Cl)cc2)nc2ccccc2c1=O)N/N=C/c1cn(-c2ccccc2)nc1-c1ccc(Br)cc1
[5]
  Ki: 56 µM
[7]
  IC50: 60.5 µM

## CC(C)(C)c1ccc(Cn2cc(CCS3=Nc4cc(Cl)ccc4C3)nn2)cc1 (configuration not stated)
[3]
  IC50: 20.7 µM

## CN(C)c1ccc(-c2ccc(/C=N/n3c(COc4ccccc4)nnc3SCCO)cc2)cc1
[2]
  IC50: 1.49 µM

## Cc1ccc(-n2cc(/C=N/NC(=O)Nc3ccccc3)c(-c3ccc([N+](=O)[O-])cc3)n2)cc1
[5]
  Ki: 87 µM
[7]
  IC50: 65.1 µM

## CCOC(=O)c1c(-c2ccc(/C=C3/SC(=O)NC3=O)cc2)c2ccccc2n1Cc1ccc(Cl)cc1
[2]
  IC50: 3.6 µM

## O=C(Cn1cc(COc2ccc(-c3nc4ccccc4c(=O)[nH]3)cc2)nn1)Nc1ccccc1
[7]
  IC50: 45.3 µM

## Cc1ccc(-c2cc(-c3ccc(Br)cc3)nc(SCc3ccc(Cl)cc3)n2)cc1
[3]
  IC50: 19.6 µM

## Nc1nnc(-c2ccc(O)cc2)s1
[1]
  IC50: 2.7 µM

## O=C(NNS(=O)(=O)c1ccccc1F)c1cc2cc(F)ccc2[nH]1
[6]
  IC50: 3.2 µM

## CCOC(=O)C1=C(C)NC2=C(C(=O)CC(C)(C)C2)C1c1cc(OC)c(OC)cc1Br (configuration not stated)
[2]
  IC50: 2.31 µM

## O=C(c1ccccc1)c1ccc2nc(-c3ccc(O)cc3)[nH]c2c1
[6]
  IC50: 11.02 µM

## Nc1c(-c2ccccc2)nc2nc3cc(Cl)c(Cl)cc3n2c1-c1ccccc1
[7]
  IC50: 16.4 µM

## O=C(NNS(=O)(=O)c1cccc(F)c1)c1cc2cc(F)ccc2[nH]1
[6]
  IC50: 3.2 µM

## O=[N+]([O-])c1ccc(S(=O)(=O)Oc2ccc(/C=C/c3nc4ccccc4nc3O)cc2)cc1
[2]
  IC50: 32 µM

## Nc1ccc2c(-c3nc4ccc(Br)c(O)c4s3)cc(=O)oc2c1
[2]
  IC50: 6.32 µM

## CCn1c(=O)c2ccccc2n2ncnc12
[8]
  IC50: 28.5 µM

## O=C(CSC(=S)Nc1cccc([N+](=O)[O-])c1)c1cc2ccccc2oc1=O
[4]
  IC50: 85 µM

## COc1cccc(/C=C/c2nc(-c3ccccc3)c3cc(Cl)ccc3n2)c1OS(=O)(=O)c1ccc([N+](=O)[O-])cc1
[2]
  IC50: 28 µM
